pEC50, pIC50, pKd, pKi: −log10 of the molar value. The source made the active and inactive calls. No cut-off for these calls is given here.
Columns and labels:
[1] = biological target: T1, Nuclear receptor subfamily 1 group I member 3 (Homo sapiens, UniProt Q14994); experiment: Inhibition of GST-tagged human CAR LBD at 100 uM incubated for 90 mins in presence of Cy5-PGC1-alpha by HTRF co-activator assay relative to control; settings: 1.5 h, read-out: Imax
T1 sequence (Q14994 whole entry): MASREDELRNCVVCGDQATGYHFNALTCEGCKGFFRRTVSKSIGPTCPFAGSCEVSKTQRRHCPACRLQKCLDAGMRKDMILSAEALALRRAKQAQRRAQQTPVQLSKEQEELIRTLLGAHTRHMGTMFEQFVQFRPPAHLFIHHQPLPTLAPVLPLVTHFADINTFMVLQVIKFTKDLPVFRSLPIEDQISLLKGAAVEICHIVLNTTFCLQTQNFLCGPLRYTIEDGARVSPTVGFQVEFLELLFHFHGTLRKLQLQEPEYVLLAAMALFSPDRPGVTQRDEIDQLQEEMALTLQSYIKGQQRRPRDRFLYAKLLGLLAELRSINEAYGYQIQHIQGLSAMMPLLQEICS

[2] = biological target: T1, Nuclear receptor subfamily 1 group I member 3; experiment: Inhibition of GST-tagged human CAR LBD incubated for 90 mins in presence of Cy5-PGC1-alpha by HTRF co-activator assay
[3] = biological target: T1, Nuclear receptor subfamily 1 group I member 3; experiment: Inhibition of GST-tagged human CAR LBD incubated for 90 mins by TR-FRET assay
[4] = biological target: T2, Peripheral plasma membrane protein CASK (Homo sapiens) (UniProt O14936); experiment: Inhibition of GST-tagged human CASK at 90 uM incubated for 90 mins by TR-FRET assay relative to control
T2 sequence (whole entry): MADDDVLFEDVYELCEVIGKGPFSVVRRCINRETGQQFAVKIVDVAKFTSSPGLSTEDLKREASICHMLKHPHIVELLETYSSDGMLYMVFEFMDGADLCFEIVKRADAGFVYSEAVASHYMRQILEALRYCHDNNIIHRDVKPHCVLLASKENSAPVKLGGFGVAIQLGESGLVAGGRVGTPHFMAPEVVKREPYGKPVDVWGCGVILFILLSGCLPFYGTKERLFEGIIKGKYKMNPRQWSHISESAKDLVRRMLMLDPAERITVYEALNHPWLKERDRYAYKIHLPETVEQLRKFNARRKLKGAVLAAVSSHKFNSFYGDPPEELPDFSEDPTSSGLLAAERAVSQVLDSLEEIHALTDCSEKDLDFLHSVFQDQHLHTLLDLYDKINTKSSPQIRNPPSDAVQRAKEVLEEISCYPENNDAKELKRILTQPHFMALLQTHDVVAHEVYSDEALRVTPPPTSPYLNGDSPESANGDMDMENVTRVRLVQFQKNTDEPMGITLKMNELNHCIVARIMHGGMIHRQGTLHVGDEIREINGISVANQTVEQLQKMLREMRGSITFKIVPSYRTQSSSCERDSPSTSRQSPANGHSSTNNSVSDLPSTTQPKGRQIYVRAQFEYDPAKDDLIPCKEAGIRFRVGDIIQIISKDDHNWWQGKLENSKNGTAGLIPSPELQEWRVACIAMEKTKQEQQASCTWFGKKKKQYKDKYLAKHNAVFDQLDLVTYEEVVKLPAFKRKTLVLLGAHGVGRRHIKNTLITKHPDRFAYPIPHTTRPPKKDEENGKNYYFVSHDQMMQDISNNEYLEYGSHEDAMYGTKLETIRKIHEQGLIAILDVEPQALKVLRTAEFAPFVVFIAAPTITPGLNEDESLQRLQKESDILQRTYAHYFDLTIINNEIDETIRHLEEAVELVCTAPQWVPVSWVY

[5] = biological target: T3, Calcium/calmodulin-dependent protein kinase kinase 2 (Homo sapiens, UniProt Q96RR4); experiment: Inhibition of GST-tagged human CAMKK2 incubated for 90 mins by TR-FRET assay
Target sequence in this assay (Q96RR4 whole entry): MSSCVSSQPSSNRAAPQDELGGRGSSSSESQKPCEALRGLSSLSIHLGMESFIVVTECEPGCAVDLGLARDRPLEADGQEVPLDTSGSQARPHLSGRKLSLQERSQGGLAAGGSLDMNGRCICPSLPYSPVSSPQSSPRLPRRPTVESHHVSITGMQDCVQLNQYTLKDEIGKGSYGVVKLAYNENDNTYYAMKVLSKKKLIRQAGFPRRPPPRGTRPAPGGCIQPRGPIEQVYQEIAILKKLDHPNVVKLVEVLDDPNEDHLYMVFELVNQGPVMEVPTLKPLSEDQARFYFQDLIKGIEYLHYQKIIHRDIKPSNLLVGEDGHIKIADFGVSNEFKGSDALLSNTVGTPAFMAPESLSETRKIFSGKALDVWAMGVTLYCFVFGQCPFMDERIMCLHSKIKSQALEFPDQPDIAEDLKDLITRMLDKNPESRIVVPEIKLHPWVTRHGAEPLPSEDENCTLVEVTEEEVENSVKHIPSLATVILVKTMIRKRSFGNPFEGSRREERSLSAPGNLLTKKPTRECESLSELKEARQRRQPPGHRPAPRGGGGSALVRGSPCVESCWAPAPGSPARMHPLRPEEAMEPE

[6] = biological target: T4, Mitogen-activated protein kinase 15 (Homo sapiens, UniProt Q8TD08); experiment: Inhibition of Flag/His-tagged human MAPK15 incubated for 90 mins by TR-FRET assay
T4 sequence (Q8TD08 whole entry): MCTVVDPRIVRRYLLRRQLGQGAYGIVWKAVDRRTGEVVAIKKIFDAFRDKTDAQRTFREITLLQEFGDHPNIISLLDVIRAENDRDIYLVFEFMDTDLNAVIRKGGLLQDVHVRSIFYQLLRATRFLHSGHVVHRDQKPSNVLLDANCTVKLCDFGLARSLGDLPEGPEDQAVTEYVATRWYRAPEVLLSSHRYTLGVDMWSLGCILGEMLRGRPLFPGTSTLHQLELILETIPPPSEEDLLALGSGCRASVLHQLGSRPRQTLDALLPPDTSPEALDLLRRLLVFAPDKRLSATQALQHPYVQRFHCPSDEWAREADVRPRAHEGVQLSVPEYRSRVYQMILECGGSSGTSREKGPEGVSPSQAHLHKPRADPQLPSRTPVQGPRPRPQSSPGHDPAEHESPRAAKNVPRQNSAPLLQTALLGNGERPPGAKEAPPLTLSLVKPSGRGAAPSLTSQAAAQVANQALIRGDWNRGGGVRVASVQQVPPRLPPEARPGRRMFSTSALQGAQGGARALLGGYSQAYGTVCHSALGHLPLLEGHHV

[7] = biological target: T5, Glycogen synthase kinase-3 alpha (Homo sapiens, UniProt P49840); experiment: Inhibition of GST-tagged human GSK3A incubated for 90 mins by TR-FRET assay
[8] = biological target: T1, Nuclear receptor subfamily 1 group I member 3; experiment: Inhibition of GST-tagged human CAR LBD at 30 uM incubated for 90 mins in presence of Cy5-PGC1-alpha by HTRF co-activator assay relative to control; settings: 1.5 h, read-out: Imax
[9] = biological target: T1, Nuclear receptor subfamily 1 group I member 3; experiment: Inhibition of GST-tagged human CAR LBD assessed as FRET signal stability measured for 90 to 180 mins incubated for 90 mins by TR-FRET assay; settings: time 90-180 min
[10] = biological target: T1, Nuclear receptor subfamily 1 group I member 3; experiment: Inhibition of GST-tagged human CAR LBD at 3 uM incubated for 90 mins in presence of Cy5-PGC1-alpha by HTRF co-activator assay relative to control; settings: 1.5 h, read-out: Imax
[11] = biological target: T1, Nuclear receptor subfamily 1 group I member 3; experiment: Inhibition of GST-tagged human CAR LBD at 100 uM incubated for 90 mins by TR-FRET assay relative to control; settings: 1.5 h, read-out: Imax
[12] = biological target: T1, Nuclear receptor subfamily 1 group I member 3; experiment: Inhibition of GST-tagged human CAR LBD at 90 uM incubated for 90 mins in presence of Cy5-PGC1-alpha by HTRF co-activator assay relative to control; settings: 1.5 h, read-out: Imax
[13] = biological target: T1, Nuclear receptor subfamily 1 group I member 3; experiment: Inhibition of GST-tagged human CAR LBD at […] incubated for 90 mins in presence of Cy5-PGC1-alpha by HTRF co-activator assay relative to control; settings: 1.5 h, dose 3.3 µM, read-out: Imax
CDK9/cyclin T1 [14] = biological target: T6, CDK9/cyclin T1 (Homo sapiens, UniProt P50750); experiment: Binding affinity to His-tagged human CDK9/CycT1 assessed as dissociation constant incubated for 90 mins by TR-FRET assay; type: protein-complex assay
[15] = biological target: T7, Peripheral plasma membrane protein CASK (Homo sapiens, UniProt O14936); experiment: Binding affinity to GST-tagged human CASK assessed as dissociation constant incubated for 90 mins by TR-FRET assay
T7 sequence (O14936 whole entry): T2 sequence (whole entry)

[16] = biological target: T8, Dual specificity tyrosine-phosphorylation-regulated kinase 2 (Homo sapiens) (UniProt Q92630); experiment: Binding affinity to GST-tagged human DYRK2 incubated for 90 mins by TR-FRET assay
T8 sequence (whole entry): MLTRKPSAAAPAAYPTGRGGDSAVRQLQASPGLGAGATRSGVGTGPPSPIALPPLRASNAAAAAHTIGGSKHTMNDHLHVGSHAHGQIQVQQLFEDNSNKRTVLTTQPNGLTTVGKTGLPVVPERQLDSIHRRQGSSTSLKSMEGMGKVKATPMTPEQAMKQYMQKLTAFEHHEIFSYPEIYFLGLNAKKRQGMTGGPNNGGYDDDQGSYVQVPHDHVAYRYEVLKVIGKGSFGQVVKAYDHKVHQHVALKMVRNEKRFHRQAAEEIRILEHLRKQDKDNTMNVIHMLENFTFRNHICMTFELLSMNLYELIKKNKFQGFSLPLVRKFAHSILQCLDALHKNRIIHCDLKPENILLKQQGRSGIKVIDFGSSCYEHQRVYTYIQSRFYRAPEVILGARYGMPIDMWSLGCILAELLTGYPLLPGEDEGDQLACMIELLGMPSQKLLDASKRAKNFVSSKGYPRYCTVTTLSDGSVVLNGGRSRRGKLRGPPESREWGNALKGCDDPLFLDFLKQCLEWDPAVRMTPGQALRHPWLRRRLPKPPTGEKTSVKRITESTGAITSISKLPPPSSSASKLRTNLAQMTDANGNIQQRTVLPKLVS

[17] = biological target: T4, Mitogen-activated protein kinase 15; experiment: Binding affinity to Flag/His-tagged human MAPK15 assessed as dissociation constant incubated for 90 mins by TR-FRET assay
[18] = biological target: T1, Nuclear receptor subfamily 1 group I member 3; experiment: Binding affinity to GST-tagged human CAR LBD assessed as fold change in FRET signal at 125 nM incubated for 90 mins by TR-FRET assay relative to control; settings: 1.5 h, 0.125 µM
[19] = biological target: T1, Nuclear receptor subfamily 1 group I member 3; experiment: Binding affinity to GST-tagged human CAR LBD assessed as dissociation constant incubated for 90 mins by TR-FRET assay
[20] = biological target: T1, Nuclear receptor subfamily 1 group I member 3; experiment: Binding affinity to GST-tagged human CAR LBD assessed as fold change in FRET signal at 298.2 nM incubated for 90 mins by TR-FRET assay relative to control; settings: 1.5 h, 0.2982 µM
[21] = biological target: T3, Calcium/calmodulin-dependent protein kinase kinase 2; experiment: Binding affinity to GST-tagged human CAMKK2 assessed as dissociation constant incubated for 90 mins by TR-FRET assay
Target sequence in this assay (Q96RR4 whole entry): as the sequence (Q96RR4 whole entry) above

[22] = biological target: T5, Glycogen synthase kinase-3 alpha; experiment: Binding affinity to GST-tagged human GSK3A assessed as dissociation constant incubated for 90 mins by TR-FRET assay
[23] = biological target: CDK9/cyclin T1 (Homo sapiens) (UniProt O60563+P50750); experiment: Inhibition of His-tagged human CDK9/CycT1 incubated for 90 mins by TR-FRET assay relative to control; type: protein-complex assay
[24] = biological target: T3, Calcium/calmodulin-dependent protein kinase kinase 2; experiment: Binding affinity to GST-tagged human CAMKK2 assessed as fold change in FRET signal at 30 uM incubated for 90 mins by TR-FRET assay relative to control
Target sequence in this assay (Q96RR4 2-588 limits assumed): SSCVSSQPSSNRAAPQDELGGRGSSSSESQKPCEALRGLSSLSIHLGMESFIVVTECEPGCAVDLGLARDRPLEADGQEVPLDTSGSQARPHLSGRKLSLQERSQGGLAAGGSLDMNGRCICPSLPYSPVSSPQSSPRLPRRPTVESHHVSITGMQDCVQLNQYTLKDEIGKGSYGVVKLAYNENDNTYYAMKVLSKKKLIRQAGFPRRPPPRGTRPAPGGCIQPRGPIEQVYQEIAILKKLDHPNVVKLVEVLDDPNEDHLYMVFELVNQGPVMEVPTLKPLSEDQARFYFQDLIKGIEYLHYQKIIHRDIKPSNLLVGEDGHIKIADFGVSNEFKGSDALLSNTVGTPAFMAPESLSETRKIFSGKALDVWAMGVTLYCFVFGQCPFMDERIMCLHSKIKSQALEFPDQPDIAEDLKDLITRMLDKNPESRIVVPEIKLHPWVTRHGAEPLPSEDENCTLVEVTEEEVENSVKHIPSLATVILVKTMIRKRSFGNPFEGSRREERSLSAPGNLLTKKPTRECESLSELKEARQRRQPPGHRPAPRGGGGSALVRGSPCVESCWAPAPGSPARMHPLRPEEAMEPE

[25] = biological target: T2, Peripheral plasma membrane protein CASK (Homo sapiens); experiment: Inhibition of GST-tagged human CASK at 30 uM incubated for 90 mins by TR-FRET assay relative to control
CDK9/cyclin T1 [26] = biological target: T6, CDK9/cyclin T1; experiment: Inhibition of His-tagged human CDK9/CycT1 incubated for 90 mins by TR-FRET assay; type: protein-complex assay

T5 sequence (P49840 whole entry, the tested form may be a part): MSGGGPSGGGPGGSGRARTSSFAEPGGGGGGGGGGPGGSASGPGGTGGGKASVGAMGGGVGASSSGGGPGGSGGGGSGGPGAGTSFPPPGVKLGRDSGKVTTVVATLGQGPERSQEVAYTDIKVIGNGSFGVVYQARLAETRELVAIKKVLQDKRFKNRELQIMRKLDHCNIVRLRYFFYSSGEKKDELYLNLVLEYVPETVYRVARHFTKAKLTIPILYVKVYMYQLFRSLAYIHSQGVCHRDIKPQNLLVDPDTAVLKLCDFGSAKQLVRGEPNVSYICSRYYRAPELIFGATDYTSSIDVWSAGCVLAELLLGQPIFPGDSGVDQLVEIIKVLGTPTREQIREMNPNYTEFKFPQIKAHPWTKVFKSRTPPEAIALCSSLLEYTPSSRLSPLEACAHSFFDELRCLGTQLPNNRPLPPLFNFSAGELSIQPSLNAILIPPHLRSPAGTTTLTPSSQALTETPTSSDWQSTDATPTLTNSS
T6 sequence (O60563 whole entry): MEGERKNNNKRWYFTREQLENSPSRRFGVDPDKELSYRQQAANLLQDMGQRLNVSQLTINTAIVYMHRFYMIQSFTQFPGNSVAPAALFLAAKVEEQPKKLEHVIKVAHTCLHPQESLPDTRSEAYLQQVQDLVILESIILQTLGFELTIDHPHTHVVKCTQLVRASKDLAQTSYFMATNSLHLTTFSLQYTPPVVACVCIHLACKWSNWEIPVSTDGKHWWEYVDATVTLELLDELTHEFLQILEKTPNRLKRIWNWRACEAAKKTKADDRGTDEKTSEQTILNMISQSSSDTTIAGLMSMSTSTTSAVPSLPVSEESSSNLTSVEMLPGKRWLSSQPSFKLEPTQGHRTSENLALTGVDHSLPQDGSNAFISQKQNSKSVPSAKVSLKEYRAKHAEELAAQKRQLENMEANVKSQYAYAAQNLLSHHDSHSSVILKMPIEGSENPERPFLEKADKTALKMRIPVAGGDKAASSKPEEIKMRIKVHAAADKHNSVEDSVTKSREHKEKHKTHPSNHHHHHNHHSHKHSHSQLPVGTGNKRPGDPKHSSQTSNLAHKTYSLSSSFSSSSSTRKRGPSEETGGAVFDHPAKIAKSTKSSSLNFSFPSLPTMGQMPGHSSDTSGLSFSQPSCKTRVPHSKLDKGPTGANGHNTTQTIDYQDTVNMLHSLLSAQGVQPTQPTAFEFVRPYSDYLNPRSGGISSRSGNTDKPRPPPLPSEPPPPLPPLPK
T6 sequence (P50750 whole entry): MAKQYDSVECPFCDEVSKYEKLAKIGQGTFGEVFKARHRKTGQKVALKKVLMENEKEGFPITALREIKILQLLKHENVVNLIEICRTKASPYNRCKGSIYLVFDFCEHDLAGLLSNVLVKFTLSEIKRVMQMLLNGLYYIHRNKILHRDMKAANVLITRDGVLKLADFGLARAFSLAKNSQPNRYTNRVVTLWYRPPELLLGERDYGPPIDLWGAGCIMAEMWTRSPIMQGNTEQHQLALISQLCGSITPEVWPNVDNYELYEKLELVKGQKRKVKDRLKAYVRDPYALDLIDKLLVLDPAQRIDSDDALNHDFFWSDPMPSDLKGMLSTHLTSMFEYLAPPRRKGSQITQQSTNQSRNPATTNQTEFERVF

C[C@]12CC[C@@H](O)C[C@@H]1CC[C@@H]1[C@@H]2CC[C@]2(C)C=CC[C@@H]12 [ANDROSTENOL]
inhibition at 100 µM [1]: 84.7% | pIC50 [2]: 6.60 | pIC50 [3]: 6.47

COc1cc(F)ccc1-c1ncnc(Nc2cccc(C[S@](C)(=N)=O)c2)n1 [ATUVECICLIB]
inhibition [4]: 27.3% | pIC50 [5]: 5.92 | pIC50 [6]: 5.59 | pIC50 [7]: 7.54

O=S(=O)(c1ccccc1)N(CC(F)(F)F)c1ccc(C(O)(C(F)(F)F)C(F)(F)F)cc1 [T091317]
pIC50 [3]: 6.19

CCOC(=O)Nc1ccc2c(c1)N(C(=O)CN(CC)CC)c1ccccc1CC2
inhibition at 30 µM [8]: 100% | pIC50 [2]: 6.59 | pIC50 [3]: 6.79

O=C(Nc1ccc2c(c1)N(C(=O)Cn1cccc1)c1ccccc1CC2)OC1CCCCC1
pIC50 [3]: 7.89

Clc1ccc(-c2nc3sccn3c2/C=N/OCc2ccc(Cl)c(Cl)c2)cc1
inhibition (INH) [9]: Active | inhibition at 3 µM [10]: 100%

CC[C@H](Nc1nc(NCc2cnc(C)cc2C)c2ncn(C(C)C)c2n1)[C@@H](C)O [CYC-065]
pIC50 [5]: 4.88 | pIC50 [6]: 6.41 | pIC50 [7]: 4.95

CC(C)(C)c1cnc(CSc2cnc(NC(=O)C3CCNCC3)s2)o1 [BMS-387032]
inhibition at 100 µM [11]: 50.8% | pEC50 [3]: 4.29 | inhibition at 90 µM [12]: 26.4%

CN1CC[C@H](c2c(O)cc(O)c3c(=O)cc(-c4ccccc4Cl)oc23)[C@H](O)C1 [ALVOCIDIB]
pIC50 [5]: 6.53 | pKi [5]: 6.62 | pIC50 [6]: 6.79 | pKi [6]: 6.92

Cc1cc(C)n2c1C=C1C=CC(CCC(=O)N3CCC(C(=O)Nc4ncc(SCc5ncc(C(C)(C)C)o5)s4)CC3)=[N+]1[B-]2(F)F
inhibition at […] [13]: 95.9% | pKd (CDK9/cyclin T1 [14]): 8.29 | pKd [15]: 6.26 | Activity [16]: inactive | pKd [17]: 6.47 | fold change (FC) [18]: 9.7 | pIC50 [2]: 6.65 | pKd [19]: 6.52 | fold change (FC) [20]: 9.1 | pKd [21]: 6.28 | pKd [22]: 8.35

COc1cc(N2CCOCC2)ccc1Nc1ncc(F)c(Nc2ccccc2NS(C)(=O)=O)n1
pIC50 [5]: 7.29 | pIC50 [6]: 5.55 | pIC50 [7]: 4.69 | inhibition [23]: < 20% | fold change (FC) [24]: 2.6 | inhibition [25]: 40.7%

CC(C)(C)c1cnc(CSc2cnc(NC(=O)C3CCN(CC(=O)NCCOCCOCCOCCNc4cccc5c4C(=O)N(C4CCC(=O)NC4=O)C5=O)CC3)s2)o1 (stereo unspecified)
pIC50 [5]: 5.57 | pIC50 [6]: 7.10 | pIC50 [7]: 8.09 | pIC50 (CDK9/cyclin T1 [26]): 8.25 | pIC50 [2]: 5.18 | inhibition at 100 µM [11]: 43.4% | pEC50 [3]: 5.51 | inhibition at 90 µM [12]: 75.4%

Cc1oc2ccccc2c1CNC(=O)NCc1cccs1
pIC50 [3]: 6.59

CN1CC[C@@H](c2c(O)cc(O)c3c(=O)cc(-c4ccccc4Cl)oc23)[C@@H]1CO
pIC50 [5]: 5.19 | pIC50 [6]: 6.15 | pIC50 [7]: 6.57

Cn1cc(C2=C(c3cn(CCCSC(=N)N)c4ccccc34)C(=O)NC2=O)c2ccccc21 [BISINDOLYLMALEIMIDE IX]
pIC50 [5]: 6.79 | pIC50 [6]: 9.05 | pIC50 [7]: 9.15
